The test system of experiment [1] is HeLa cells. The experiment in a line: AlamarBlue cytotoxic assay, HeLa. The following applies: human cervical HeLa cells, 48 h, read-out: Cytotoxicity IC50 HeLa. Format: cell-based. Here is the method: (§1) The cells were seeded in 96-well microplates (1 × 10^4 cells/100 µL in each well) and cultivated for 24 h before the addition of test compounds. Three wells for each concentration were seeded and triplicate plates were used. […] Then, the cells were incubated with the different concentrations of the test compounds, positive control and cell culture medium alone as a negative control for 48 h. After that, 10 μL of alamarBlue® reagent was added to the attached cells and incubated for another four hour. The absorbance was measured at 600 nm using an ELISA microplate reader (Epoch; Bio Tek, Winooski, VT, USA), and the percent viability of the cells was investigated relative to the negative control that was exposed to the culture medium without compounds of the plant. Then, IC50 values were calculated by nonlinear regression analysis using GraphPad Prism (Version 6.0) software.
On the technique in general: Resazurin is reduced to fluorescent resorufin, in cell work by metabolically active cells.

Experiment [2] has as its system A549 cells. The experiment in a line: AlamarBlue cytotoxic assay, A549. The settings on record: Homo sapiens, lung A549 cells, 48 h, read-out: Cytotoxicity IC50 A549. Format: cell-based. On the procedure: as §1
The test system of experiment [3] is HDAC. The experiment in a line: Whole-cell HDAC inhibition assay in HCT116 cells. Format: cell-based, human. The settings on record: HCT116, 18 h, Boc-Lys(ε-Ac)-AMC substrate. On the procedure:
(§2) The cellular HDAC assay was based on an assay published by Marek et al. ([16]). HCT116 and HeLa human cancer cell lines were seeded in 96-well tissue culture microplates (1.5 × 10^4 cells/90 µL culture medium in each well). […] The test compounds were dissolved in dimethyl sulfoxide (the final amount of DMSO/well was maintained at 0.1% V/V) and their concentrations adjusted to 70, 40, 20, 5, 1 μM through dilution with the growth medium. The reaction was started by adding 10 µL of 3 mM Boc-Lys (ε-Ac)-AMC (Bachem, Switzerland) to each well at a final concentration of 0.3 mM. The cells were incubated with the Boc-Lys (ε-Ac)-AMC for 3 h under cell culture conditions. […] The final volume of the assay is 210 µL in all the wells. After that, the solution was transferred into a black 96-well microplate with flat clear bottom and fluorescence intensity was detected at an excitation of 360 nm and emission of 470 nm in a NOVO star microplate reader (BMGLabTech, Offenburg, Germany).

Experiment [4] deals with A2780 cells. The experiment in a line: AlamarBlue cytotoxic assay, A2780. Format: cell-based. The following applies: Homo sapiens, ovarian cancer A2780 cells, 48 h, read-out: Cytotoxicity IC50 A2780. On the procedure:
as §1

For experiment [5], the system named is HCT116 cells. Briefly: AlamarBlue cytotoxic assay, HCT116. Format: cell-based. The settings on record: HCT-116, human colon cancer HCT116 cells, 48 h, read-out: Cytotoxicity IC50 HCT116. On the procedure: as §1
In experiment [6] the test system is HDAC. Briefly: Whole-cell HDAC inhibition assay in HeLa cells. Format: cell-based, human. The settings on record: 18 h, Boc-Lys(ε-Ac)-AMC substrate. On the procedure: as §2
The subject of experiment [7] is A2780, A549, HeLa, and HCT116 human cancer cell lines. The experiment in a line: AlamarBlue cytotoxic assay, range over four cancer cell lines. Format: cell-based. The following applies: read-out: Cytotoxicity IC50 range against four cancer cell lines. On the procedure:
Compounds 1-5 were tested against HeLa, HCT116, A2780and A549 human cancer cell lines using a nonfluorescent substrate, AlamarBlue® (BioSource Invitrogen, Paisely, UK) and subjected to cell viability assay as described with some modification ([15]). The cell lines were cultured in RPMI-1640 medium (Cambrex Bioscience) supplemented with 10% fetal bovine serum (FBS), and 1% penicillin/streptomycin at 37 °C in an atmosphere of 95% […] and 5% CO2. The cells were seeded in 96-well microplates (1 × 10^4 cells/100 µL in each well) and cultivated for 24 h before the addition of test compounds. Three wells for each concentration were seeded and triplicate plates were used. The test compounds were dissolved in dimethyl sulfoxide (the final amount of DMSO per well was maintained at 0.1%V/V) and their concentrations adjusted to 100, 50, 25, 12.5, 6.25 μM through dilution with the growth medium. […] The absorbance was measured at 600 nm using an ELISA microplate reader (Epoch; Bio Tek, Winooski, VT, USA), and the percent viability of the cells was investigated relative to the negative control that was exposed to the culture medium without compounds of the plant. Then, IC50 values were calculated by nonlinear regression analysis using GraphPad Prism (Version 6.0) software.

Experiment [8] has as its system pan-HDAC. The experiment in a line: Whole-cell pan-HDAC inhibition, range over HCT116 and HeLa cells. Format: cell-based, human. The settings on record: read-out: pan-HDAC inhibitory activity IC50 range. Here is the method:
as §2

Bounds are passed on as bounds.

One may read the IC50 as the concentration that inhibits the measured activity by half. Take `COc1c(C2COc3cc(O)c(CC=C(C)C)c(O)c3C2=O)ccc(O)c1CC=C(C)C` (centres unmarked) [Compound 1, isosophoranone]: the half-maximal inhibitory concentration (IC50) in experiment [1] amounted to 43.2 µM; in experiment [2], 53.5 µM; in experiment [3], 26.5 µM; in experiment [4], 49.3 µM; in experiment [5] it was 39.3 µM; in experiment [6], 34.7 µM.
`C=C(C)C(CC=C(C)C)Cc1c2c(c(O)c3c1OC(c1ccc(O)cc1)C3c1cc(O)cc(O)c1)C(=O)CC(c1ccc(O)cc1O)O2` (centres unmarked) [Compound 4, alopecurone J]: the 50% inhibitory concentration (IC50) was 9.97 µM in experiment [1]; 9.97 to 30.9 µM in experiment [7]; 30.9 µM in experiment [2]; 0.08 µM in experiment [3]; 0.08 to 3.85 µM in experiment [8]; 21.9 µM in experiment [4]. The results for the IC50 in experiment [5] and in experiment [6] were 18 µM and 3.85 µM, respectively.
On to `C=C(C)[C@H](CC=C(C)C)Cc1c(O)cc(O)c2c1O[C@H](c1ccc(O)cc1O)CC2=O` [Compound 2, sophoraflavanone G], for which the IC50 was 44.2 µM in experiment [1]; 72.5 µM in experiment [2]; greater than 70 µM in experiment [3]; 65.5 µM in experiment [4]; 54.4 µM in experiment [5]; greater than 70 µM in experiment [6].
In the case of `CC(C)=CCc1c2c(c(O)c3c1O[C@@H](c1ccc(O)cc1)[C@@H]3c1cc(O)cc(O)c1)C(=O)C[C@@H](c1ccc(O)cc1O)O2` [Compound 5, alopecurone P], the IC50 is 52.6 µM in experiment [1]; 54.9 µM in experiment [2]; 22.2 µM in experiment [3]; 69 µM in experiment [4]; 48.4 µM in experiment [5]; 24.9 µM in experiment [6].
As for `Oc1ccc(C2Oc3cc(O)cc(O)c3C2O)cc1` (centres unmarked) [Compound 3, 2-(4-hydroxyphenyl)-2,3-dihydrobenzo[b]furan-3,4,6-triol], the IC50 in experiment [1] was 69.4 µM; in experiment [2] it was 76.5 µM; in experiment [3] it was greater than 70 µM; in experiment [4] it was greater than 100 µM; in experiment [5] it was 54 µM; in experiment [6], greater than 70 µM.

The values are drawn from publication PMC8019873, “Histone Deacetylase Inhibitory and Cytotoxic Activities of the Constituents from the Roots of Sophora Pachycarpa” (Iranian Journal of Pharmaceutical Research : IJPR, 2020).
